Our source for the viability and melting point values is patent US9012481B2, “Benzoarylureido compounds, and composition for prevention or treatment of neurodegenerative brain disease containing the same” (Korea Institute of Science and Technology, priority 2009, dated 2015).

For one data set, the system named is BV-2 cells. The data set is described as follows: Cell viability (MTT analysis) of beta-amyloid treated BV-2 cells. The data set is classed as cell-based. To be noted: Mus musculus, BV-2 cells, average of three experiments. The protocol:
Beta-amyloid (Aβ25-35, Sigma Chemical Co., St. Louis, Mo., USA) was diluted with aseptic desalted water and preservative solution (1 mM, GIBCO), and kept in aliquots at −70° C. To the treatment of beta-amyloid, beta-amyloid preservative solution was diluted to desired concentrations in a treatment medium (DMEM, GIBCO). The reagents were newly provided as a preservative solution (10 mM) under DMSO (dimethylsulfoxide), and diluted in treatment medium to desired concentrations.
BV-2 microglia cells (allotted from Pharmacology Division of Ajou University) were cultivated in DMEM (Dulbecco's Modified Eagle's Medium) supplemented with 5% fetal bovine serum (Invitrogen, Carlsbad, Calif., USA), sou/Ml penicillin (Invitrogen, Carlsbad, Calif., USA), and 50 μg/Ml streptomycin (Invitrogen, Carlsbad, Calif., USA) under the atmosphere condition with 5% CO2 and 95% air at 37° C. The medium was replaced once a day, the cells were plate-cultured in a density according to the scale of each experiment.
BV-2 cells were plate-cultured in 96-well plate at the density of 5×10^4, the cell viability was measured according to a conventional MTT analysis method and lactate dehydrogenase (LDH) analysis method. The MTT analysis depends on the metabolism ability of mitochondria of living cell, and reflexes intracellular redox states. The cultured cells were treated with MTT a solution (final concentration: 1 mg/Ml) for 4 hours. Deep blue formazan crystal generated in the original cells was dissolved in a lysis buffer, and then, the absorbance was detected at 595 nm with microplate reader. The LDH activity released from the culture medium was detected, which was evaluated as a cell death index. The culture medium was added to a reagent (test, Sigma Chemical Co, St. Louis, Mo., USA) containing sodium lactate, NADH and sodium pyruvate, and then, the absorbance reduction by NADH at 340 nm was measured. The result was calculated assuming that the LDH activity in homogenate solution of the non-treated control is 100%.
[…] For microscope analysis, BV-2 cells were used in 6-well plate at the density of 5×10^5 cells/well, for MTT analysis, BV-2 cells were used in 96-well plate at the density of 5×10^4 cells/well.
The obtained prevention effects of KHG25967 compound on toxicity induced by beta-amyloid in BV-2 cells were FIGS. 1A and 1b.
For MTT analysis, BV-2 cells were used on 96-well plate in the density of 5×10^4 cells/well. The quantitative analysis results (unit: %) for the cell viability obtained by MTT analysis were shown in Table 2, wherein the values are represented by the average of three experiments per each concentration.

The mark [1] stands for this setting: compound 50 μM for 24 hours after 50 μM beta-amyloid for 2 hours, read-out: cell viability by MTT analysis.
Where [2] appears, read: compound 500 nM for 24 hours after 50 μM beta-amyloid for 2 hours, read-out: cell viability by MTT analysis.
Setting [3] is: BV-2, read-out: cell viability by MTT analysis, compound 500 nM for 24 hours after 50 μM beta-amyloid for 2 hours.

SMILES strings stand for the structures. Read-outs that look alike come from different tables or passages of the source.

`Cc1ccc(CNC(=O)Nc2nc3ccc(Cl)cc3o2)cc1` [KHG25990]: the viability at 50 µM in the data set on BV-2 cells (setting [1]) came to 37%. In turn, `CCOC(=O)CNC(=S)Nc1nc2cc(C)c(C)cc2s1` [KHG26307, ethyl 2-(3-(5,6-dimethylbenzo[d]thiazole-2-yl)thioureido)acetate] gave a melting point of 255 °C. In addition, in the data set on BV-2 cells (setting [2]), the viability at 0.5 µM was 48%. Regarding `Cn1c(NC(=O)NCCC(=O)O)nc2ccccc21` [KHG26222, potassium 3-(3-(1-methyl-1H-benzo[d]imidazole-2-yl)ureido)propanoate], the viability at 0.5 µM with BV-2 cells (setting [3]) amounted to 33%. `CCOC(=O)CNC(=S)Nc1nc2ccc(C)cc2s1` [KHG26305, ethyl 2-(3-(6-methylbenzo[d]thiazole-2-yl)thioureido)acetate] gave a melting point of 290.8 °C. In addition, the viability at 0.5 µM in the data set with BV-2 cells (setting [2]) turned out to be 37%. For `Cc1cc2nc(NC(=S)NCC(=O)O)sc2cc1C` [KHG26335, 2-(3-(5,6-dimethylbenzo[d]thiazole-2-yl)thioureido)acetic acid], in that order: 212 °C and 81%. Consider `O=C([O-])CCNC(=O)Nc1nc2ccccc2s1.[K+]` [KHG26220, potassium 3-(3-benzo[d]thiazole-2-ylureido)propanoate], for which the melting point was 249 °C. Further, in the data set with BV-2 cells (setting [3]), the viability at 0.5 µM turned out to be 33%. Regarding `O=C(O)CNC(=S)Nc1nc2ccccc2s1` [KHG26316, 2-(3-benzo[d]thiazole-2-ylthioureido)acetic acid], the melting point came to 200 °C. Besides, in the data set on BV-2 cells (setting [2]), the viability at 0.5 µM worked out at 57%. `O=C([O-])CNC(=O)Nc1nc2ccc(Cl)cc2s1.[K+]` [KHG26177, potassium 2-(3-(6-chlorobenzo[d]thiazole-2-yl)ureido)acetate] had a melting point of 237 °C. In addition, the viability at 0.5 µM in the data set with BV-2 cells (setting [3]) stood at 62%. For `Cc1cc2nc(NC(=O)NCC(=O)[O-])sc2cc1C.[K+]` [KHG26180, potassium 2-(3-(5,6-dimethylbenzo[d]thiazole-2-yl)ureido)acetate], in that order: 278 °C and 62%. `Cc1ccc(CNC(=O)Nc2nc3ccccc3s2)cc1` [KHG25948, 1-(benzo[d]thiazole-2-yl)-3-(4-methylbenzyl)urea] displayed a melting point of 257 °C. In addition, the viability at 50 µM in the data set on BV-2 cells (setting [1]) is 30%.

In the case of `CCOC(=O)CCNC(=O)Nc1nc2ccccc2[nH]1` [KHG26027, ethyl 3-(3-1H-benzo[d]imidazole-2-ylureido)propanoate], the melting point is 264 °C. Besides, the viability at 50 µM in the data set with BV-2 cells (setting [1]) was found to be 45%.

As to `Cc1cccc2sc(NC(=S)NCC(=O)O)nc12` [KHG26340, 2-(3-(4-methylbenzo[d]thiazole-2-yl)thioureido)acetic acid], the melting point is 214 °C. The viability at 0.5 µM in the data set on BV-2 cells (setting [2]) stood at 78%. `CCOC(=O)CNC(=O)Nc1nc2ccc(F)cc2s1` [KHG25956, ethyl 2-(3-(6-fluorobenzo[d]thiazole-2-yl)ureido)acetate] came in with a melting point of 291 °C. The viability at 50 µM in the data set on BV-2 cells (setting [1]) stood at 36%. The molecule `Cc1ccc2nc(NC(=O)NCC(=O)[O-])sc2c1.[K+]` [KHG26216, potassium 2-(3-(6-methylbenzo[d]thiazole-2-yl)ureido)acetate] came in with a melting point of 236 °C. Further, in the data set with BV-2 cells (setting [3]), the viability at 0.5 µM amounted to 62%. On to `Cc1cccc2sc(NC(=O)NCC(=O)[O-])nc12.[K+]` [KHG26217, potassium 2-(3-(4-methylbenzo[d]thiazole-2-yl)ureido)acetate], for which the melting point is 264.4 °C. In addition, in the data set with BV-2 cells (setting [3]), the viability at 0.5 µM is 49%.

The molecule `CCOC(=O)CCNC(=O)Nc1nc2ccccc2s1` [KHG26005, ethyl 3-(3-benzo[d]thiazole-2-ylureido)propanoate] had a melting point of 256 °C. Besides, in the data set with BV-2 cells (setting [1]), the viability at 50 µM came to 40%. For the molecule `Cn1c(NC(=O)NCCCC(=O)O)nc2ccccc21` [KHG26358, 4-(3-(1-methyl-1H-benzo[d]imidazole-2-yl)ureido)butanoic acid], the melting point turned out to be 197 °C. The same measure, in the same setting: then `Cc1ccc2nc(NC(=O)NCC(=O)O)sc2c1` [KHG26355, 2-(3-(6-methylbenzo[d]thiazole-2-yl)ureido)acetic acid], with 201 °C.

Molecule `O=C(O)CNC(=O)Nc1nc2c(Cl)cccc2s1` [KHG26352, 2-(3-(4-chlorobenzo[d]thiazole-2-yl)ureido)acetic acid] registered a melting point of 198 °C.

With `CCOC(=O)CNC(=O)Nc1nc2cc(C)c(C)cc2s1` [KHG26353, ethyl 2-(3-(5,6-dimethylbenzo[d]thiazole-2-yl)ureido)acetate], the melting point was determined as 268 °C. Same read-out and setting: then `CCOc1ccc2nc(NC(=O)NCC(=O)O)sc2c1` [KHG26348, 2-(3-(6-ethoxybenzo[d]thiazole-2-yl)ureido)acetic acid], with 197 °C; and `Cc1cccc2sc(NC(=O)NCC(=O)O)nc12` [KHG26356, 2-(3-(4-methylbenzo[d]thiazole-2-yl)ureido)acetic acid], with 203 °C; and `O=C(O)CNC(=O)Nc1nc2ccc(Cl)cc2s1` [KHG26350, 2-(3-(6-chlorobenzo[d]thiazole-2-yl)ureido)acetic acid], with 216 °C. For `CCNC(=O)Nc1nc2ccccc2s1` [KHG26332, 1-(benzo[d]thiazole-2-yl)-3-ethylurea], in the data set on BV-2 cells (BV-2, read-out: cell viability by MTT analysis, compound 50 μM for 24 hours after 50 μM beta-amyloid for 2 hours), the viability at 50 µM stood at 18%. As to `CCOC(=O)CNC(=O)Nc1nc2ccc(Cl)cc2o1` [KHG25989, ethyl 2-(3-(6-chlorobenzo[d]oxazole-2-yl)ureido)acetate], the viability at 50 µM in the data set on BV-2 cells (setting [1]) turned out to be 55%. In turn, `CCOC(=O)CNC(=O)Nc1nc2ccc(Cl)cc2s1` [KHG26349, ethyl 2-(3-(6-chlorobenzo[d]thiazole-2-yl)ureido)acetate] came in with a melting point of 295 °C. Same read-out and setting: then `CCOC(=O)CNC(=O)Nc1nc2ccc(OCC)cc2s1` [KHG26347, ethyl 2-(3-(6-ethoxybenzo[d]thiazole-2-yl)ureido)acetate], with 264 °C.

As for `COc1ccc2nc(NC(=O)NCC(=O)O)sc2c1` [KHG26175, potassium 2-(3-(6-methoxybenzo[d]thiazole-2-yl)ureido)acetate], the viability at 0.5 µM in the data set on BV-2 cells (setting [3]) stood at 76%.

Take `CCOC(=O)CNC(=O)Nc1nc2c(Cl)cccc2s1` [KHG26351, ethyl 2-(3-(4-chlorobenzo[d]thiazole-2-yl)ureido)acetate]: the melting point stood at 213 °C. On the same count and under the same terms, then `Cn1c(NC(=O)NCCC(=O)O)nc2ccccc21` [KHG26357, 3-(3-(1-methyl-1H-benzo[d]imidazole-2-yl)ureido)propane acid], with 237 °C. With `O=C(O)CNC(=O)Nc1nc2ccccc2s1` [KHG26096, potassium 2-(3-benzo[d]thiazole-2-ylureido)acetate], the viability at 0.5 µM in the data set with BV-2 cells (setting [3]) came to 72%.

`COc1ccc2nc(NC(=O)NCC(=O)O)sc2c1` [KHG26346, 2-(3-(6-methoxybenzo[d]thiazole-2-yl)ureido)acetic acid] displayed a melting point of 198.3 °C. Same read-out and setting: then `Cc1cc2nc(NC(=O)NCC(=O)O)sc2cc1C` [KHG26354, 2-(3-(5,6-dimethylbenzo[d]thiazole-2-yl)ureido)acetic acid], with 198 °C.

Usually viability stands for the share of living cells, or the viability signal relative to a control. What is called melting point is the temperature, or range, at which the solid turns liquid.
